Results on twelve molecules are retold here after ChEMBL document CHEMBL1201862, “PubChem BioAssay data set” (2004).

Holding throughout (assay): NCI anticancer screen, dose series, 48 h
The subject of experiment [1] is KM12.
Experiment [2] has as its system CAKI-1.
Experiment [3] deals with SK-MEL-5.
Experiment [4] has as its system IGROV-1.
Experiment [5] relates to NCI-H23.
Experiment [6] has as its system RXF 393.
For experiment [7], the system named is MDA-MB-435.
Experiment [8] concerns ACHN.
In experiment [9] the test system is Malme-3M.
Experiment [10] concerns MOLT-4.
The subject of experiment [11] is NCI/ADR-RES.
Experiment [12] deals with HT-29.
Experiment [13] has as its system MDA-MB-231.
Experiment [14] deals with DU-145.
In experiment [15] the test system is U-251.
The subject of experiment [16] is SK-OV-3.
The subject of experiment [17] is K562.
For experiment [18], the system named is SF-539.

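Values below derive from 48-hour exposures of cells grown in 96-well plates, with endpoints linearly interpolated between the two concentrations bracketing the appropriate inhibition level. Abbreviation: GI50, concentration required for 50% inhibition of growth.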 Active and inactive are the calls of the source. Rule as the data show it: active = GI50 up to about 1.1 µM and inactive = higher. Non-standard residues stand in square brackets, D forms with d. Residues, ends and D or L forms follow the SMILES beside them. *: point of attachment. NMeF = CN[CH](Cc1ccccc1)C(=O)O; NMeV = CN[CH](C(=O)O)C(C)C; Boc = CC(C)(C)OC(=O)* Some results are limits rather than exact numbers.

Consider `Nc1ccccc1/N=N/c1c(S(=O)(=O)O)cc2cc(S(=O)(=O)O)cc(O)c2c1O`, for which the GI50 in [1], in [2], in experiment [3], in [4], in experiment [5] and in experiment [6] was > 100 µM (inactive) in each case. Besides, the GI50 in experiment [7], in experiment [8], in experiment [9], in experiment [10], in experiment [11] and in [12] was > 100 µM (inactive) throughout. Also, the GI50 in experiment [13], in experiment [14], in experiment [15], in experiment [16] and in experiment [17] was > 100 µM (inactive) in each case.

Consider `COC[C@@H](/N=C/c1ccc(OC)cc1)C(C)C`, for which the GI50 in experiment [1], in [2], in experiment [3], in experiment [4], in experiment [5] and in [6] was > 100 µM (inactive) each time. The GI50 in experiment [7], in [8], in experiment [9], in experiment [10], in experiment [11] and in experiment [12] was > 100 µM (inactive) throughout. The GI50 in experiment [14], in [15], in experiment [16] and in experiment [17] was > 100 µM (inactive) throughout.

Consider `CC(CC=O)Nc1nn2c(=O)c3ccccc3nc2s1` (stereo unspecified), for which the GI50 in experiment [1], in experiment [2], in experiment [18], in [3], in experiment [4] and in experiment [5] was > 100 µM (inactive) in each case. Also, the GI50 in [6], in [7], in experiment [8], in [9], in [10] and in experiment [11] was > 100 µM (inactive) each time. Also, the GI50 in experiment [12], in [14], in experiment [15], in experiment [16] and in [17] was > 100 µM (inactive) each time.

For `CC(C)C(NC(=O)OC(C)(C)C)C(=O)N(C)C(Cc1ccccc1)C(=O)N(C)C(C(=O)O)C(C)C` (stereo not drawn) (Boc-Val-[NMeF]-[NMeV]-OH; configuration not given here), the GI50 in experiment [1], in experiment [18], in [3], in [4], in experiment [5] and in experiment [9] was > 100 µM (inactive) each time. Also, the GI50 in [10], in experiment [12], in experiment [15], in [16] and in experiment [17] was > 100 µM (inactive) in each case.

In the case of `O=C(COc1ccc(OCC(=O)N2C(=O)CC/C2=N\c2ccc(Cl)cc2)cc1)N1C(=O)CS/C1=N\c1ccc(Cl)cc1`, the GI50 in [1] was 75.2 µM (inactive); in experiment [2], > 100 µM (inactive); in experiment [3] it was 76 µM (inactive); in experiment [4] it was 47.6 µM (inactive); in [5], 42 µM (inactive); in experiment [6], > 100 µM (inactive). Further, the GI50 was > 100 µM (inactive) in [7]; 49.8 µM (inactive) in experiment [8]; 77.3 µM (inactive) in [9]; > 100 µM (inactive) in experiment [11]; 48.4 µM (inactive) in [12]; 26.9 µM (inactive) in experiment [13]. In addition, the GI50 is > 100 µM (inactive) in [14], 29.5 µM (inactive) in experiment [15], > 100 µM (inactive) in [16] and 66.4 µM (inactive) in [17].

On to `CN(C)c1ccc(/C=c2/c3ccccc3n3c2cc(C24CC5CC(CC(C5)C2)C4)[n+]3C)cc1`, for which the GI50 in experiment [1] was 0.156 µM (active); in experiment [2], 0.234 µM (active); in [18] it was 0.123 µM (active); in experiment [3] it was 0.158 µM (active); in [4] it was 0.127 µM (active); in experiment [5], 0.261 µM (active). Moreover, the GI50 is 0.176 µM (active) in experiment [7]; 0.23 µM (active) in experiment [8]; 0.527 µM (active) in experiment [9]; 0.998 µM (active) in experiment [10]; 1.52 µM (inactive) in [11]; 0.299 µM (active) in experiment [12]. Besides, the GI50 in experiment [13] is 0.281 µM (active); in [14] it was 0.311 µM (active); in experiment [15], 0.0664 µM (active); in [16] it was 0.377 µM (active); in experiment [17] it was 0.0998 µM (active).

Take `Cc1ccnc2nc(-c3ccc4ccccc4c3)cc(O)c12`: the GI50 in experiment [1] is 0.452 µM (active); in experiment [18], 1.22 µM (inactive); in experiment [4], 1.2 µM (inactive); in experiment [5] it was 2.56 µM (inactive); in experiment [8] it was 2.96 µM (inactive); in [9] it was 1.14 µM (inactive). The GI50 in experiment [10] is 0.479 µM (active); in experiment [11], 1.3 µM (inactive); in [12] it was 0.8 µM (active); in experiment [13] it was 1.67 µM (inactive); in experiment [14], 4.1 µM (inactive); in [16], 1.09 µM (active). The GI50 in [17] is 0.403 µM (active).

In the case of `Cc1cnc2sn(-c3ccc(Oc4ccccc4)cc3)c(=O)c2c1`, the GI50 is 13.4 µM (inactive) in experiment [1]; 14 µM (inactive) in experiment [18]; 9.59 µM (inactive) in experiment [3]; 14.7 µM (inactive) in experiment [4]; 25.4 µM (inactive) in [5]; 13.3 µM (inactive) in experiment [7]. The GI50 in experiment [8] is 13.7 µM (inactive); in experiment [9], 1.7 µM (inactive); in [10], 8.67 µM (inactive); in experiment [11] it was 21.7 µM (inactive); in experiment [12], 18.2 µM (inactive); in experiment [13], 20.5 µM (inactive). Besides, the GI50 in experiment [14] is 14.1 µM (inactive); in experiment [15] it was 17 µM (inactive); in experiment [16] it was 25.8 µM (inactive).

`CC1=N[C@@](C)(C2CC3C=CC2C3=O)COC1=O` (stereo partly specified): the GI50 in experiment [1], in experiment [2], in [18], in experiment [3], in [4] and in experiment [5] was > 100 µM (inactive) each time. The GI50 in experiment [6], in experiment [7], in experiment [8], in [9], in experiment [10] and in experiment [12] was > 100 µM (inactive) in each case. Also, the GI50 in experiment [13], in [14], in [15], in [16] and in [17] was > 100 µM (inactive) in each case.

For `OCC1OC(n2cnc3c(Cl)nc(Nc4ccc(Cl)c(Cl)c4)nc32)CC1O` (stereo unspecified), the GI50 was 8.83 µM (inactive) in [1]; 16.3 µM (inactive) in [2]; 8.34 µM (inactive) in experiment [3]; 11.9 µM (inactive) in [4]; 10.2 µM (inactive) in [5]; 10.3 µM (inactive) in experiment [6]. Moreover, the GI50 is 9.38 µM (inactive) in [7]; 8.69 µM (inactive) in [8]; 12 µM (inactive) in experiment [9]; 5.02 µM (inactive) in [10]; 10.4 µM (inactive) in experiment [11]; 7.71 µM (inactive) in [12]. Also, the GI50 in [13] was 11.8 µM (inactive); in [14], 11.6 µM (inactive); in experiment [15], 10.2 µM (inactive); in experiment [16] it was 13.6 µM (inactive); in experiment [17] it was 8.63 µM (inactive).

As for `O=c1[nH]c(=O)n(CCOc2ccccc2)cc1Nc1ccccc1`, the GI50 was > 100 µM (inactive) in experiment [1]; > 100 µM (inactive) in experiment [2]; > 100 µM (inactive) in experiment [3]; > 100 µM (inactive) in [4]; > 100 µM (inactive) in [5]; 37.3 µM (inactive) in [6]. For the same molecule, the GI50 in experiment [7] was > 100 µM (inactive); in experiment [8], 92.7 µM (inactive); in experiment [9] it was > 100 µM (inactive); in experiment [10], > 100 µM (inactive); in [11], > 100 µM (inactive); in experiment [12] it was > 100 µM (inactive). The GI50 in experiment [14], in experiment [15] and in [17] was > 100 µM (inactive) in each case.

In the case of `Cc1ccc(S(=O)(=O)NC(=O)NC(Cc2c[nH]c3ccccc23)C(=O)O)cc1` (stereo unspecified), the GI50 in experiment [1], in experiment [18], in [3], in experiment [4], in [5] and in [6] was > 100 µM (inactive) throughout. Also, the GI50 in experiment [9], in [10], in experiment [11], in experiment [12], in experiment [13] and in [14] was > 100 µM (inactive) each time. For the same molecule, the GI50 in experiment [15], in experiment [16] and in experiment [17] was > 100 µM (inactive) in each case.
